In US7153494B2, “Dibenzoylmethane sunscreen compositions photostabilized with amphiphilic block copolymers” (L'Oreal, priority 2002, dated 2006):

Experiment: Photostability of oily Parsol 1789/block copolymer mixture as a thin coat on a glass plate, xenon lamp irradiation, absorption spectrophotometry
Type: physicochemical
Details: mixture with Tegomer SE-1010; thin coat about 10 microns on glass plate, in presence of oxygen; UV-A 22 J/cm^2, 20 minutes
Method: The Parsol® 1789 was dispersed in the Tegomer SE-1010 with heating at 40° C. for 60 minutes. The mixture was allowed to cool to room temperature. The oily mixture was ready for use.
The oily mixture was evaluated in the form of a thin coat of about 10 microns deposited on a glass plate (microscope slide), in the presence of oxygen.
An irradiation was then performed, using an Ostram-Centra Uvimeter equipped with a xenon lamp, under the following conditions: • Energy of the UV-A lamp: 22 J/cm^2 • Irradiation time of the simulator=20 minutes
These conditions correspond to about one hour of solar UV-A sunshine.
The photodegradation was monitored by absorption spectrophotometry. The following results were obtained: • 1) The mixture was able to form a film and the quality of the film was not impaired by the irradiation. • 2) 100% of the Parsol® 1789 was recovered after this exposure.

## COc1ccc(C(=O)CC(=O)c2ccc(C(C)(C)C)cc2)cc1 [Parsol® 1789, 4-(tert-butyl)-4′-methoxydibenzoylmethane]
  Parsol 1789 recovered after exposure: 100%
